Laboratory results reported in patent US12012403B2, “Aryl sulfonyl compounds as CCR6 inhibitors” (CHEMOCENTRYX, INC., priority 2021, dated 2024).
pIC50: −log10 of the molar value.

Biological target: T1, human CCR6 (Homo sapiens, UniProt P51684)
T1 construct: expressed in transfected cells; host or cells: Ba/F3 cells (murine pro-B line), hCCR6-transfected, CMV promoter, sodium butyrate induction
T1 sequence (P51684 1-374): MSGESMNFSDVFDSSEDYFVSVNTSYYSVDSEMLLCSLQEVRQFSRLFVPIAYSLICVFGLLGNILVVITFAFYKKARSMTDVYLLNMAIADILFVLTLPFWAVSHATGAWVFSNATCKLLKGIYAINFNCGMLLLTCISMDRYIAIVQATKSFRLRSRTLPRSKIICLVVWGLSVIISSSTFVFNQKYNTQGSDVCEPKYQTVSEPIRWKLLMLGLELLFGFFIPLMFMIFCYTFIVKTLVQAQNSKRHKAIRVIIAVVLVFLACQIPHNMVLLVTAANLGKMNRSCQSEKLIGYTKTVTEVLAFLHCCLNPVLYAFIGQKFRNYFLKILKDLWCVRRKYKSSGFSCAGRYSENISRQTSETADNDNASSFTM
Experiment: Migration (chemotaxis) assay, hCCR6-transfected Ba/F3 cells toward CCL20
Type: cell-based
Conditions: hCCR6-transfected Ba/F3 cells in human serum; recombinant human CCL20 10 nM; 37° C. 45 minutes; read-out: Potency (IC50 value in the migration assay)
Excerpt: A chemotaxis assay can be used to determine the efficacy of potential receptor antagonists at blocking the migration mediated through chemokine receptors, such as CCR6. This assay is routinely performed using the ChemoTX® microchamber system with a 5-μm pore-sized polycarbonate membrane. Chemokine receptor-expressing cells are required for such an assay. In this case, Ba/F3 cells (Palacios et al., Nature, 309:126, 1984) transfected with the gene for human CCR6 under control of the CMV promotor were used. To begin such an assay, hCCR6-transfected Ba/F3 cells are first grown for 24 hr in medium supplemented with sodium butyrate, which increases CCR6 transcription via the CMV promotor. The prepared Ba/F3 cells, are collected by centrifugation at 400×g at room temperature, then suspended at 4 million/ml in human serum. The compound being tested is serially diluted from a maximum final concentration of 10 μM (or an equivalent volume of its solvent (DMSO)) and is then added to the cell/serum mixture. Separately, recombinant human CCL20 (MIP-3α/LARC) at its EC50 concentration (10 nM) is placed in the lower wells of the ChemoTX® plate. The 5-μm (pore size) polycarbonate membrane is placed onto the plate, and 20 μL of the cell/compound mixture is transferred onto each well of the membrane. The plates are incubated at 37° C. for 45 minutes, after which the polycarbonate membranes are removed and 5 μl of the DNA-intercalating dye CyQUANT (Invitrogen, Carlsbad, CA) is added to the lower wells. The amount of fluorescence, corresponding to the number of migrated cells, is measured using a Spectrafluor Plus plate reader (TECAN, San Jose, CA).

pIC50 | Compound
5.00 to 7.00 | CC(=O)N[C@H]1CCCN(c2ccc(S(=O)(=O)N3CCC(Nc4ccc(C(F)(F)F)cn4)CC3)cc2)C1 [Example 1.193]
7.00 to 8.30 | NC(=O)NCCC1CCN(c2ccc(S(=O)(=O)N3CCC(Nc4ccc(C(F)(F)F)cn4)CC3)cc2)CC1 [Example 1.125]
> 8.30 | O=C1Cc2cc(-c3ccc(S(=O)(=O)N4CCC(Nc5ccc(C(F)(F)F)cn5)CC4)cc3)ccc2CN1 [Example 1.012]
5.00 to 7.00 | N#Cc1n[nH]c2c1CN(c1ccc(S(=O)(=O)N3CCC(Nc4ccc(C(F)(F)F)cn4)CC3)cc1)CC2 [Example 1.207]
5.00 to 7.00 | O=S(=O)(c1ccc(N2CCC(Cc3ncc[nH]3)CC2)cc1)N1CCC(Nc2ccc(C(F)(F)F)cn2)CC1 [Example 1.131]
7.00 to 8.30 | CC(=O)NCC1CCN(c2ccc(S(=O)(=O)N3CCC(Nc4ccc(C(F)(F)F)cn4)CC3)cc2)CC1 [Example 1.140]
> 8.30 | O=C1c2cc(-c3ccc(S(=O)(=O)N4CCC(Nc5ccc(C(F)(F)F)cn5)CC4)cc3)ccc2CN1CCO [Example 1.033]
7.00 to 8.30 | O=C1CCc2ccc(-c3ccc(S(=O)(=O)N4CCC(Nc5ccc(C(F)(F)F)cn5)CC4)cc3)cc2N1 [Example 1.047]
> 8.30 | O=c1[nH]ncc2cc(-c3ccc(S(=O)(=O)N4CCC(Nc5ccc(C(F)(F)F)cn5)CC4)cc3)ccc12 [Example 1.059]
7.00 to 8.30 | CC(=O)N1CCN(c2ccc(S(=O)(=O)N3CCC(Nc4ccc(C(F)(F)F)cn4)CC3)cc2)CC1 [Example 1.226]
5.00 to 7.00 | O=S1(=O)CCN(c2ccc(S(=O)(=O)N3CCC(Nc4ccc(C(F)(F)F)cn4)CC3)cc2)CC1 [Example 1.231]
7.00 to 8.30 | N#Cc1cn(CCN)c2ncc(-c3ccc(S(=O)(=O)N4CCC(Nc5ccc(C(F)(F)F)cn5)CC4)cc3)cc12 [Example 1.013]
5.00 to 7.00 | Cc1cc(S(=O)(=O)N2CCC(Nc3ccc(C(F)(F)F)cn3)CC2)ccc1-c1ccc2c(c1)CC(=O)N2 [Example 1.018]
7.00 to 8.30 | O=C1CCc2cc(-c3ccc(S(=O)(=O)N4CCC(Nc5ccc(C(F)(F)F)cn5)CC4)cc3)ccc2N1 [Example 1.078]
7.00 to 8.30 | NC(=O)C1CCN(c2ccc(S(=O)(=O)N3CCC(Nc4ccc(C(F)(F)F)cn4)CC3)cc2)CC1 [Example 1.228]
5.00 to 7.00 | NC(=O)N[C@H]1CCCN(c2ccc(S(=O)(=O)N3CCC(Nc4ccc(C(F)(F)F)cn4)CC3)cc2)C1 [Example 1.191]
7.00 to 8.30 | NC(=O)N1CCCN(c2ccc(S(=O)(=O)N3CCC(Nc4ccc(C(F)(F)F)cn4)CC3)cc2)CC1 [Example 1.203]
7.00 to 8.30 | O=S(=O)(c1ccc(-c2ccc3c(c2)NCCO3)cc1)N1CCC(Nc2ccc(C(F)(F)F)cn2)CC1 [Example 1.035]
5.00 to 7.00 | O=C(CC1CCN(c2ccc(S(=O)(=O)N3CCC(Nc4ccc(C(F)(F)F)cn4)CC3)cc2)CC1)NCCO [Example 1.133]
7.00 to 8.30 | CC(=O)N1CCC(c2ccc(S(=O)(=O)N3CCC(Nc4ccc(C(F)(F)F)cn4)CC3)cc2)CC1 [Example 1.184]
7.00 to 8.30 | NC(=O)CN1Cc2ccc(-c3ccc(S(=O)(=O)N4CCC(Nc5ccc(C(F)(F)F)cn5)CC4)cc3)cc2C1=O [Example 1.040]
5.00 to 7.00 | O=C1CN(c2ccc(S(=O)(=O)N3CCC(Nc4ccc(C(F)(F)F)cn4)CC3)cc2)CCN1 [Example 1.211]
> 8.30 | Nc1nc(=O)c2cc(-c3ccc(S(=O)(=O)N4CCC(Nc5ccc(C(F)(F)F)cn5)CC4)cc3)ccc2[nH]1 [Example 1.015]
7.00 to 8.30 | O=S(=O)(c1ccc(N2CCCCC2)cc1)N1CCC(Nc2ccc(C(F)(F)F)cn2)CC1 [Example 1.235]
7.00 to 8.30 | O=S(=O)(c1ccc(-c2cc3cc[nH]c3nc2F)cc1)N1CCC(Nc2ccc(C(F)(F)F)cn2)CC1 [Example 1.042]
7.00 to 8.30 | COc1cc(-c2ccc(S(=O)(=O)N3CCC(Nc4ccc(C(F)(F)F)cn4)CC3)cc2)cc2c1NC(=O)C2 [Example 1.045]
5.00 to 7.00 | NC(=O)[C@H]1[C@@H]2CN(c3ccc(S(=O)(=O)N4CCC(Nc5ccc(C(F)(F)F)cn5)CC4)cc3)C[C@@H]21 [Example 1.162]
> 8.30 | O=C1NCc2ccc(-c3ccc(S(=O)(=O)N4CCC(Nc5ccc(C(F)(F)F)cn5)CC4)cc3)cc21 [Example 1.093]

pIC50 | Compound
> 8.30 | N#Cc1cn(CC(N)=O)c2ncc(-c3ccc(S(=O)(=O)N4CCC(Nc5ccc(C(F)(F)F)cn5)CC4)cc3)cc12 [Example 1.039]
7.00 to 8.30 | NC(=O)C1CC2(C1)CN(c1ccc(S(=O)(=O)N3CCC(Nc4ccc(C(F)(F)F)cn4)CC3)cc1)C2 [Example 1.121]
7.00 to 8.30 | O=C1COc2cc(-c3ccc(S(=O)(=O)N4CCC(Nc5ccc(C(F)(F)F)cn5)CC4)cc3)ccc2N1 [Example 1.074]
7.00 to 8.30 | O=C1NCC2(CCN(c3ccc(S(=O)(=O)N4CCC(Nc5ccc(C(F)(F)F)cn5)CC4)cc3)CC2)N1 [Example 1.150]
5.00 to 7.00 | O=C1CNC(=O)C2(CCN(c3ccc(S(=O)(=O)N4CCC(Nc5ccc(C(F)(F)F)cn5)CC4)cc3)CC2)N1 [Example 1.139]
> 8.30 | NC(=O)c1n[nH]c2ccc(-c3ccc(S(=O)(=O)N4CCC(Nc5ccc(C(F)(F)F)cn5)CC4)cc3)cc12 [Example 1.095]
> 8.30 | CNc1n[nH]c2ncc(-c3ccc(S(=O)(=O)N4CCC(Nc5ccc(C(F)(F)F)cn5)CC4)cc3)cc12 [Example 1.049]
7.00 to 8.30 | CC(C)(C)OC(=O)N1CCC=C(c2ccc(S(=O)(=O)N3CCC(Nc4ccc(C(F)(F)F)cn4)CC3)cc2)C1 [Example 1.233]
7.00 to 8.30 | NC(=O)c1c[nH]c2ccc(-c3ccc(S(=O)(=O)N4CCC(Nc5ccc(C(F)(F)F)cn5)CC4)cc3)cc12 [Example 1.080]
5.00 to 7.00 | O=S(=O)(c1ccc(-c2ccc3[nH]ccc3c2)cc1)N1CCC(Nc2ccc(C(F)(F)F)cn2)CC1 [Example 1.119]
> 8.30 | CC1(C)NC(=O)c2ncc(-c3ccc(S(=O)(=O)N4CCC(Nc5ccc(C(F)(F)F)cn5)CC4)cc3)cc21 [Example 1.009]
7.00 to 8.30 | NCCN1C(=O)C2(CC2)c2cc(-c3ccc(S(=O)(=O)N4CCC(Nc5ccc(C(F)(F)F)cn5)CC4)cc3)cnc21 [Example 1.002]
7.00 to 8.30 | O=C1CC2(CCN(c3ccc(S(=O)(=O)N4CCC(Nc5ccc(C(F)(F)F)cn5)CC4)cc3)CC2)C(=O)N1 [Example 1.149]
> 8.30 | O=C1Nc2ccc(-c3ccc(S(=O)(=O)N4CCC(Nc5ccc(C(F)(F)F)cn5)CC4)cc3)cc2C12CC2 [Example 1.051]
7.00 to 8.30 | CC(C)(C(N)=O)C1CCN(c2ccc(S(=O)(=O)N3CCC(Nc4ccc(C(F)(F)F)cn4)CC3)cc2)CC1 [Example 1.123]
7.00 to 8.30 | CS(=O)(=O)N1CCN(c2ccc(S(=O)(=O)N3CCC(Nc4ccc(C(F)(F)F)cn4)CC3)cc2)CC1 [Example 1.200]
> 8.30 | N#Cc1c[nH]c2ccc(-c3ccc(S(=O)(=O)N4CCC(Nc5ccc(C(F)(F)F)cn5)CC4)cc3)cc12 [Example 1.114]
5.00 to 7.00 | O=S(=O)(c1ccc(N2CC[C@H](O)C2)cc1)N1CCC(Nc2ccc(C(F)(F)F)cn2)CC1 [Example 1.197]
5.00 to 7.00 | O=S(=O)(c1ccc(N2CCN(c3nnc[nH]3)CC2)cc1)N1CCC(Nc2ccc(C(F)(F)F)cn2)CC1 [Example 1.174]
> 8.30 | NC(=O)c1cnc2ccc(-c3ccc(S(=O)(=O)N4CCC(Nc5ccc(C(F)(F)F)cn5)CC4)cc3)cn12 [Example 1.085]
7.00 to 8.30 | NC(=O)NC1CCN(c2ccc(S(=O)(=O)N3CCC(Nc4ccc(C(F)(F)F)cn4)CC3)cc2)CC1 [Example 1.205]
7.00 to 8.30 | CC(=O)NC1CC2(C1)CN(c1ccc(S(=O)(=O)N3CCC(Nc4ccc(C(F)(F)F)cn4)CC3)cc1)C2 [Example 1.163]
7.00 to 8.30 | O=c1[nH]c2ccc(-c3ccc(S(=O)(=O)N4CCC(Nc5ccc(C(F)(F)F)cn5)CC4)cc3)cc2[nH]1 [Example 1.115]
7.00 to 8.30 | CS(=O)(=O)NC1CC2(C1)CN(c1ccc(S(=O)(=O)N3CCC(Nc4ccc(C(F)(F)F)cn4)CC3)cc1)C2 [Example 1.161]
7.00 to 8.30 | CS(=O)(=O)NCC1CCN(c2ccc(S(=O)(=O)N3CCC(Nc4ccc(C(F)(F)F)cn4)CC3)cc2)CC1 [Example 1.141]
7.00 to 8.30 | O=c1[nH]c2cc(-c3ccc(S(=O)(=O)N4CCC(Nc5ccc(C(F)(F)F)cn5)CC4)cc3)ccc2o1 [Example 1.082]
> 8.30 | Cn1nc(C#N)c2cc(-c3ccc(S(=O)(=O)N4CCC(Nc5ccc(C(F)(F)F)cn5)CC4)cc3)ccc21 [Example 1.091]
